# Paper PMC3017600 (Nucleic Acids Research, 2010)
# Where no end group is shown, it is not given here. [ ]: non-standard residue; d: D form. pS = N[C@@H](COP(=O)(O)O)C(=O)O
# B1: Rad9, pS387 fluorescein-labelled peptide (peptide)
# peptide: fluorescein-GGPSPVLAED[pS]EGEG
# modifications: also: phosphoserine at 387 (Rad9 numbering)
# B2: GST-Rad9Tail: GST-fusion with the C-terminus of human Rad9 (amino acids 264–391), expressed in E. coli (protein)
# chain: TLSDTDSHSQDLGSPERHQPVPQLQAHSTPHPDDFANDDIDSYMIAMETTIGNEGSRVLPSISLSPGPQPPKSPGPHSEEEDEAEPSTVPGTPPPKKFRSLFFGSILAPVRSPQGPSPVLAEDSEGEG
# modifications: left off: GST, N-terminal, kept
# Legend:
# [1] = test system: TopBP1(1–290) double mutants; experiment: Fluorescence polarization binding, double mutants; parameters: species or system human; conditions: putative binding sites in both BRCT1 and BRCT2 disrupted
# TopBP1(1–290) wild-type = TopBP1(1–290) wild-type (Homo sapiens, UniProt Q92547); format: binding; conditions: fluorescence polarization; 10 nM fluorescein-labelled peptide; 4°C, 30 min
# TopBP1(1–290) [2] = target: TopBP1(1–290) (human, UniProt Q92547 1-290); experiment: fluorescence polarisation
# TopBP1(1–290) [3] = experiment: Co-precipitation; format: binding, human; conditions: Glutathione Sepharose; no Mg-ATP; SDS–PAGE
# Chain of TopBP1(1–290) wild-type (Q92547 1-290): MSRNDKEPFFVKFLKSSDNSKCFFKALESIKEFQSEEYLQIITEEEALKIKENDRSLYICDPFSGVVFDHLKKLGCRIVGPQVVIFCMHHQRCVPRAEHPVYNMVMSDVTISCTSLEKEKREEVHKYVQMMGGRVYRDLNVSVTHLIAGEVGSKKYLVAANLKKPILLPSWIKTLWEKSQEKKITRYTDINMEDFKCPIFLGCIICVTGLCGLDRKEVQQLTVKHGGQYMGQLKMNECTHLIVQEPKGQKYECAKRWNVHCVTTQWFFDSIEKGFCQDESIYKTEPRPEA
# Chain of TopBP1(1–290) (human, UniProt Q92547 1-290) (Q92547 1-290): as above
molecule,measurement,setting,value
"fluorescein-GGPSPVLAED[pS]EGEG [Rad9, pS387]",Interaction with TopBP1(1–290) double mutants (in words),[1],no measurable interaction
"fluorescein-GGSDTDSH[pS]QDLGSPE [Rad9, pS272]",Binding to wild-type TopBP1(1–290) (in words),TopBP1(1–290) wild-type,no significant affinity was observed
B1,Kd,TopBP1(1–290) [2],2100 nM
B2,Co-precipitation of TopBP1(1–290) by GST fusion incubated with CK2α in the absence of Mg-ATP,TopBP1(1–290) [3],failed to co-precipitate detectable
